Data: patent US20220041606A1, “POSITIVE ALLOSTERIC MODULATORS OF THE MUSCARINIC ACETYLCHOLINE RECEPTOR M1” (Vanderbilt University, priority 2020, published 2022)

What was measured:
[1] = target: T1, human mAChR M1 (Homo sapiens, UniProt P11229); assay: mAChR M1 cell-based functional assay (calcium mobilization), PAM activity: increase in the EC20 acetylcholine response; settings: CHO-K1 cells expressing hM1; potentiation of EC20 acetylcholine response
T1 construct: host or cells: CHO-K1 cells (ATCC), stably transfected using Lipofectamine2000
T1 sequence (P11229 1-460): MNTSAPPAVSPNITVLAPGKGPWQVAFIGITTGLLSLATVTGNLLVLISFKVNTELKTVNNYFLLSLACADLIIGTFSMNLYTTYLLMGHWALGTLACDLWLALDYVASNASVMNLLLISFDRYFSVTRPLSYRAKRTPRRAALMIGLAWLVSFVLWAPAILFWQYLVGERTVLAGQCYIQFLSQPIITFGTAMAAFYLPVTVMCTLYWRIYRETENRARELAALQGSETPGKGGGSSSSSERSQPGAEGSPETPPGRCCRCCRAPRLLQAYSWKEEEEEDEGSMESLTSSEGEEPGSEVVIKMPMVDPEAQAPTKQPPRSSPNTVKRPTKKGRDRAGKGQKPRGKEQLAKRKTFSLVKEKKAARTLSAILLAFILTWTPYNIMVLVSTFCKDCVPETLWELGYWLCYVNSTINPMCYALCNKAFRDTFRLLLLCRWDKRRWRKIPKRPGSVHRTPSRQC
From the text: (§1) Chinese hamster ovary (CHO-K1) cells stably expressing rat (r)M1 were purchased from the American Type Culture Collection and cultured according to their indicated protocol. CHO cells stably expressing human (h)M2, hM3, and hM5 were described previously (Levey, et al., 1991); hM1 and hM4 cDNAs were purchased from Missouri S&T cDNA Resource; rM4 cDNA was provided by T. L. Bonner (National Institutes of Health, Bethesda, MID). rM2 and rM3 were cloned from a rat brain cDNA library and sequence verified. hM1, rM2, rM3, hM4, and rM4 cDNAs were used to stably transfect CHO-K1 cells purchased from the American Type Culture Collection using Lipofectamine2000. To make stable rM2, hM2, rM3, hM4, and rM4 cell lines for use in calcium mobilization assays, these cells also were stably transfected with a chimeric G-protein (Gqi5) (provided by B. R. Conklin, University of California, San Francisco) using Lipofectamine 2000. rM1, hM1, rM3, hM3, rM5, and hM5 cells were grown in Ham's F-12 medium containing 10% heat-inactivated fetal bovine serum (FBS), 20 mM HEPES, and 50 μg/mL G418 sulfate. rM2-Gq15, hM2-Gqi5, and hM4-Gqi5 cells were grown in the same medium also containing 500 μg/mL Hygromycin B. Stable rM4-Gqi5 cells were grown in DMEM containing 10% heat-inactivated FBS, 20 mM HEPES, 400 μg/mL G418 sulfate, and 500 μg/mL Hygromycin B.
(§2) For high throughput measurement of agonist-evoked increases in intracellular calcium, CHO-K1 cells stably expressing muscarinic receptors were plated in growth medium lacking G418 and hygromycin at 15,000 cells/20 μL/well in Greiner 384-well black-walled, tissue culture (TC)-treated, clear-bottom plates (VWR). Cells were incubated overnight at 37° C. and 5% CO2. The next day, cells were washed using an ELX 405 (BioTek) with four washes (80 μL) of assay buffer then aspirated to 20 μL. Next, 20 μL of 16 μM Fluo-4/acetoxymethyl ester (Invitrogen, Carlsbad, Calif.) prepared as a 2.3 mM stock in DMSO and mixed in a 1:1 ratio with 10% (w/v) Pluronic F-127 and diluted in assay buffer was added to the wells and the cell plates were incubated for 50 min at 37° C. and 5% CO2. Dye was removed by washing with the ELX 405 (four 80 μL washes of assay buffer) then aspirated to 20 μL. Compound master plates were formatted in an 11 point CRC format (1:3 dilutions) in 100% DMSO with a starting concentration of 10 mM using the BRAVO liquid handler (Agilent). Test compound CRCs were then transferred to daughter plates (240 nL) using the Echo acoustic plate reformatter (Labcyte, Sunnyvale, Calif.) and then diluted into assay buffer (40 μL) to a 2× stock using a Thermo Fisher Combi (Thermo Fisher Scientific, Waltham, Mass.).
(§3) Calcium flux was measured using the Functional Drug Screening System (FDSS) 6000 (Hamamatsu Corporation, Tokyo, Japan) as an increase in the fluorescent static ratio. Compounds were applied to cells (20 μL, 2×) using the automated system of the FDSS 6000 at 4 s into the 300 s protocol and the data were collected at 1 Hz. At 144 s into the 300s protocol, 10 μL of an EC20 concentration of the muscarinic receptor agonist acetylcholine was added (5×), followed by the addition of 12 μL an EC80 concentration of acetylcholine at the 230 s time point (5×). Agonist activity was analyzed as a concentration-dependent increase in calcium mobilization upon compound addition. Emax values for agonist activity are expressed relative to the maximum for acetylcholine. Positive allosteric modulator activity was analyzed as a concentration-dependent increase in the EC20 acetylcholine response. Antagonist activity was analyzed as a concentration-dependent decrease in the EC80 acetylcholine response. Concentration-response curves were generated using a four-parameter logistical equation in XLfit curve fitting software (IDBS, Bridgewater, N.J.) for Excel (Microsoft, Redmond, Wash.) or Prism (GraphPad Software, Inc., San Diego, Calif.). […]

[2] = target: T1, human mAChR M1; assay: mAChR M1 cell-based functional assay (calcium mobilization), agonist activity upon compound addition; settings: CHO-K1 cells expressing hM1; for EC50: compound alone, before acetylcholine addition; for Emax: relative to the maximum for acetylcholine
From the text: as §1, §2, §3

EC50 [1] [nM] | Emax [1] [%] | EC50 [2] [µM] | Emax [2] [%] | SMILES
7780 | 64 | > 10 | < 5 | O=C(N[C@H]1CCC[C@@H]1O)c1cn(Cc2ccc(-n3cccn3)cc2)c(=O)c2cccnc12 [Compound A14, 6-(4-(1H-pyrazol-1-yl)benzyl)-N-((1S,2S)-2-hydroxycyclopentyl)-5-oxo-5,6-dihydro-1,6-naphthyridine-8-carboxamide]
≥ 10000 | 55 | > 10 | < 5 | Cn1cc(-c2ccc(Cn3cc(C(=O)N[C@H]4CCC[C@@H]4O)c4ncccc4c3=O)cn2)cn1 [Compound A17, N-((1S,2S)-2-hydroxycyclopentyl)-6-((6-(1-methyl-1H-pyrazol-4-yl)pyridin-3-yl)methyl)-5-oxo-5,6-dihydro-1,6-naphthyridine-8-carboxamide]
780 | 63 | > 10 | < 5 | Cc1nc(-c2ccc(Cn3cc(C(=O)N[C@H]4CCCC[C@@H]4O)c4ncccc4c3=O)cc2)co1 [Compound A20, N-((1S,2S)-2-hydroxycyclohexyl)-6-(4-(2-methyloxazol-4-yl)benzyl)-5-oxo-5,6-dihydro-1,6-naphthyridine-8-carboxamide]
52 | 67 | > 10 | < 5 | Cn1cc2c(-c3cc(F)c(Cn4cc(C(=O)N[C@H]5CCCC[C@@H]5O)c5ncccc5c4=O)c(F)c3)cccc2n1 [Compound A22, 6-(2,6-difluoro-4-(2-methyl-2H-indazol-4-yl)benzyl)-N-((1S,2S)-2-hydroxycyclohexyl)-5-oxo-5,6-dihydro-1,6-naphthyridine-8-carboxamide]
350 | 69 | 6.12 | 16 | Cn1cc(-c2ccc(Cn3cc(C(=O)N[C@H]4CCCCC[C@@H]4O)c4ncccc4c3=O)c(F)c2)cn1 [Compound A24, 6-(2-fluoro-4-(1-methyl-1H-pyrazol-4-yl)benzyl)-N-((1S,2S)-2-hydroxycycloheptyl)-5-oxo-5,6-dihydro-1,6-naphthyridine-8-carboxamide]
490 | 75 | – | 10 | Cc1cc(-c2ccc(Cn3cc(C(=O)N[C@H]4CCOC[C@@H]4O)c4ncccc4c3=O)c(F)c2)ccn1 [Compound A26, 6-(2-fluoro-4-(2-methylpyridin-4-yl)benzyl)-N-((3R,4S)-3-hydroxytetrahydro-2H-pyran-4-yl)-5-oxo-5,6-dihydro-1,6-naphthyridine-8-carboxamide]
860 | 74 | > 10 | 6 | Cc1cc(-c2ccc(Cn3cc(C(=O)N[C@H]4CCCC[C@@H]4O)c4ncccc4c3=O)c(F)c2)ccn1 [Compound A27, 6-(2-Fluoro-4-(2-methylpyridin-4-yl)benzyl)-N-((1S,2S)-2-hydroxycyclohexyl)-5-oxo-5,6-dihydro-1,6-naphthyridine-8-carboxamide]
1140 | 54 | > 10 | < 5 | Cc1cc(-c2ccc(Cn3cc(C(=O)N[C@H]4CCC[C@@H]4O)c4ncccc4c3=O)c(F)c2)ccn1 [Compound A28, 6-(2-fluoro-4-(2-methylpyridin-4-yl)benzyl)-N-((1S,2S)-2-hydroxycyclopentyl)-5-oxo-5,6-dihydro-1,6-naphthyridine-8-carboxamide]

Further lines, the compound ahead of its results:

SMILES | EC50 [1] [nM] | Emax [1] [%] | EC50 [2] [µM] | Emax [2] [%]
Cn1cc(-c2ccc(Cn3cc(C(=O)N[C@H]4CCOC[C@@H]4O)c4ncccc4c3=O)cn2)cn1 [Compound A15, N-((3R,4S)-3-hydroxytetrahydro-2H-pyran-4-yl)-6-((6-(1-methyl-1H-pyrazol-4-yl)pyridin-3-yl)methyl)-5-oxo-5,6-dihydro-1,6-naphthyridine-8-carboxamide] | 1370 | 68 | – | 34
Cn1cc(-c2ccc(Cn3cc(C(=O)N[C@H]4CCCC[C@@H]4O)c4ncccc4c3=O)cn2)cn1 [Compound A16, N-((1S,2S)-2-hydroxycyclohexyl)-6-((6-(1-methyl-1H-pyrazol-4-yl)pyridin-3-yl)methyl)-5-oxo-5,6-dihydro-1,6-naphthyridine-8-carboxamide] | 980 | 68 | – | 27
Cn1cc(-c2ccc(Cn3cc(C(=O)N[C@H]4CCCCC[C@@H]4O)c4ncccc4c3=O)cn2)cn1 [Compound A18, N-((1S,2S)-2-hydroxycycloheptyl)-6-((6-(1-methyl-1H-pyrazol-4-yl)pyridin-3-yl)methyl)-5-oxo-5,6-dihydro-1,6-naphthyridine-8-carboxamide] | 1660 | 60 | > 10 | < 5
Cc1nc(-c2ccc(Cn3cc(C(=O)N[C@H]4CCOC[C@@H]4O)c4ncccc4c3=O)cc2)co1 [Compound A19, N-((3R,4S)-3-hydroxytetrahydro-2H-pyran-4-yl)-6-(4-(2-methyloxazol-4-yl)benzyl)-5-oxo-5,6-dihydro-1,6-naphthyridine-8-carboxamide] | 2490 | 67 | – | 20
Cn1cc2c(-c3cc(F)c(Cn4cc(C(=O)N[C@H]5CCOC[C@@H]5O)c5ncccc5c4=O)c(F)c3)cccc2n1 [Compound A21, 6-(2,6-difluoro-4-(2-methyl-2H-indazol-4-yl)benzyl)-N-((3R,4S)-3-hydroxytetrahydro-2H-pyran-4-yl)-5-oxo-5,6-dihydro-1,6-naphthyridine-8-carboxamide] | 19 | 72 | 1.23 | 31
Cn1cc2c(-c3cc(F)c(Cn4cc(C(=O)N[C@H]5CCCCC[C@@H]5O)c5ncccc5c4=O)c(F)c3)cccc2n1 [Compound A23, 6-(2,6-difluoro-4-(2-methyl-2H-indazol-4-yl)benzyl)-N-((1S,2S)-2-hydroxycycloheptyl)-5-oxo-5,6-dihydro-1,6-naphthyridine-8-carboxamide] | 210 | 67 | > 10 | < 5
O=C(N[C@H]1CCCCC[C@@H]1O)c1cn(Cc2ccc(-n3cccn3)cc2)c(=O)c2cccnc12 [Compound A25, 6-(4-(1H-pyrazol-1-yl)benzyl)-N-((1S,2S)-2-hydroxycycloheptyl)-5-oxo-5,6-dihydro-1,6-naphthyridine-8-carboxamide] | 970 | 68 | > 10 | < 5
